One test has as its target T1, S1P1 (Homo sapiens, UniProt P21453).
T1 construct: expressed in transfected cells
The test is described as follows: FLIPR calcium assay, cells expressing S1P1 and a G-protein. The class given is cell-based. The procedure:
(§1) After removal of excess dye by washing, the cells are placed in the FLIPR TETRA instrument. Baseline fluorescence readings are taken prior to addition the compound to be tested. Agonists will trigger the receptor to interact with the G-protein, leading to an increase in intracellular calcium. The increase in intracellular calcium causes an increase in the fluorescence of the cells, due to the presence of fluo-4. This fluorescence increase is recorded by the FLIPR TETRA. After the calcium transient signal has decreased towards baseline, the standard agonist sphingosine 1-phosphate is added. If the test compound is an antagonist, an initial calcium signal will not be generated and the antagonist will prevent the generation of a calcium signal from sphingosine 1-phosphate.

Test [1] deals with T2, S1P2 (Homo sapiens, UniProt O95136). The test is described as follows: FLIPR calcium assay, cells expressing S1P2 and a G-protein. Type of test: cell-based. To be noted: for FLIPR (% Antagonism) S1P2: antagonism versus sphingosine 1-phosphate. The procedure: as §1
The target in another test is T3, S1P3 (Homo sapiens, UniProt Q99500).
T3 construct: expressed in transfected cells
Kind of test: FLIPR calcium assay, cells expressing S1P3 and a G-protein. The class given is cell-based. The procedure:
as §1

Test [2] has as its target T2, S1P2. The test is described as follows: S1P2 values marked (33P S1P). Type of test: binding. The settings on record: value marked (33P S1P).

We go through 15 compounds from patent US8703797B2, “Condensed ring pyridine compounds as subtype-selective modulators of sphingosine-1-phosphate-2 (S1P2) receptors” (Allergan, Inc., priority 2009, dated 2014).

A value given as a limit tells only on which side of the number the result lay.

T1 sequence (P21453 whole entry, species assumed): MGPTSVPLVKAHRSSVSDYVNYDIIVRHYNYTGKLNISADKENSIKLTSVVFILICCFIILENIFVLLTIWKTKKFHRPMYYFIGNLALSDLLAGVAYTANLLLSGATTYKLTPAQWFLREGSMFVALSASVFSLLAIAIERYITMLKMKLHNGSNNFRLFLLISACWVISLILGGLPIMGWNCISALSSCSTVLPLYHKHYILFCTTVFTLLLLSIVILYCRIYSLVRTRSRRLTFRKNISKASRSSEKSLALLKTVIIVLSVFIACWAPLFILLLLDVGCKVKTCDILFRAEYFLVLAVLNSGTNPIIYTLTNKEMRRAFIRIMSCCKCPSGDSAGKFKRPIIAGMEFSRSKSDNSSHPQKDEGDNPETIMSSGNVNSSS
T3 sequence (Q99500 whole entry, species assumed): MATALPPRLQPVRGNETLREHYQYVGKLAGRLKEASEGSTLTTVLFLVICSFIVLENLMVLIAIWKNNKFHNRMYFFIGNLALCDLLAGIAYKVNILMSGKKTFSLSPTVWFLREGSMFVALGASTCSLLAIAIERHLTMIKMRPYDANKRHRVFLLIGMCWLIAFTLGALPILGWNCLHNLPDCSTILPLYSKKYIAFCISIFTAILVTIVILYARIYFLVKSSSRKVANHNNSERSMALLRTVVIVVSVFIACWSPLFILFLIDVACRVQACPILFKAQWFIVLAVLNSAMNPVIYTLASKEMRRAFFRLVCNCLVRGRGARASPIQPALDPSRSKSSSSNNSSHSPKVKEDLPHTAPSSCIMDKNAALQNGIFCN
T2 sequence (O95136 whole entry, species assumed): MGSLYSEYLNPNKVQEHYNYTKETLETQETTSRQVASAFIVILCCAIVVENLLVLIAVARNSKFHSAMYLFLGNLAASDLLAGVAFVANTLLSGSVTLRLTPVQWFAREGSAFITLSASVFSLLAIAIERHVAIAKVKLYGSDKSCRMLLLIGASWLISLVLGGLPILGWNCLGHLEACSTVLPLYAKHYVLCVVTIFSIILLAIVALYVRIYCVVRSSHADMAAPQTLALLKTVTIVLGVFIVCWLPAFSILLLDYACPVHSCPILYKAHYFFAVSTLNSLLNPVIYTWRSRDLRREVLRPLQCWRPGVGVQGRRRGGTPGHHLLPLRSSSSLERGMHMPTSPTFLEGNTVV

In general, EC50 refers to the concentration giving half of the maximal effect. With `Cc1nn(C)c2c(C(C)C)cc(NNC(=O)Nc3cc(Cl)cc(Cl)c3)nc12` [Example 1, N-(3,5-dichlorophenyl)-2-(7-isopropyl-1,3-dimethyl-1H-pyrazolo[4,3-b]pyridin-5-yl)hydrazinecarboxamide], the EC50 is above 8300 nM on S1P1, 47 nM on S1P2 [1], above 8300 nM at S1P3 and 2.9 nM at S1P2 [2]. At S1P2 [1], the “FLIPR (% Antagonism) S1P2” value is reported as “(96) %”.
With `Cc1nn(C)c2c(C(C)C)cc(CNC(=O)Nc3cc(Cl)nc(Cl)c3)nc12` [Example 2, 1-(2,6-dichloropyridin-4-yl)-3-((7-isopropyl-1,3-dimethyl-1H-pyrazolo[4,3-b]pyridin-5-yl)methyl)urea], the concentration for a half-maximal effect (EC50) was above 8300 nM on S1P1, 118 nM on S1P2 [1], above 8300 nM at S1P3 and 23.8 nM on S1P2 [2]. In addition, at S1P2 [1], the “FLIPR (% Antagonism) S1P2” value is “(91) %”.
As to `CCCCc1cc(NC(=O)NNc2cc(C(C)C)c3c(n2)c(C)nn3C)cc(Cl)n1` [Example 3, N-(2-butyl-6-chloropyridin-4-yl)-2-(7-isopropyl-1,3-dimethyl-1H-pyrazolo[4,3-b]pyridin-5-yl)hydrazinecarboxamide], the EC50 on S1P1 was above 8300 nM; at S1P2 [1], 8 nM; on S1P3 it was above 8300 nM; on S1P2 [2] it was 5.7 nM. In addition, the “FLIPR (% Antagonism) S1P2” value on S1P2 [1] was “(99) %”.
For the compound `Cc1nn(C)c2c(C)cc(CNC(=O)Nc3cc(Cl)cc(Cl)c3)nc12` [Example 5, 1-(3,5-dichlorophenyl)-3-((1,3,7-trimethyl-1H-pyrazolo[4,3-b]pyridin-5-yl)methyl)urea], the EC50 at S1P1 is above 8300 nM; at S1P2 [1], 135 nM; on S1P3, above 8300 nM. The “FLIPR (% Antagonism) S1P2” value at S1P2 [1] was “(82) %”.
In the case of `Cc1nn(C)c2c(C(C)C)cc(NNC(=O)Nc3cc(Cl)nc(Cl)c3)nc12` [Example 6, N-(2,6-dichloropyridin-4-yl)-2-(7-isopropyl-1,3-dimethyl-1H-pyrazolo[4,3-b]pyridin-5-yl)hydrazinecarboxamide], the concentration giving a half-maximal response (EC50) at S1P1 was above 8300 nM; on S1P2 [1], 11 nM; at S1P3 it was above 8300 nM; at S1P2 [2], 2.2 nM. Besides, the “FLIPR (% Antagonism) S1P2” value at S1P2 [1] is on record as “(95) %”.
`Cc1nn(C)c2c(C(C)C)cc(NNC(=O)Nc3cc(C(F)(F)F)cc(C(F)(F)F)c3)nc12` [Example 7, N-(3,5-bis(trifluoromethyl)phenyl)-2-(7-isopropyl-1,3-dimethyl-1H-pyrazolo[4,3-b]pyridin-5-yl)hydrazinecarboxamide]: the half-maximal effective concentration (EC50) was above 8300 nM on S1P1, 196 nM at S1P2 [1] and above 8300 nM on S1P3. At S1P2 [1], the “FLIPR (% Antagonism) S1P2” value is listed as “(98) %”.
As for `Cc1nn(C)c2c(C(C)C)cc(CNC(=O)Nc3cc(Cl)cc(Cl)c3)nc12` [Example 9], the EC50 on S1P1 was above 8300 nM; on S1P2 [1] it was 149 nM; at S1P3, above 8300 nM; on S1P2 [2], 26.4 nM. Besides, the “FLIPR (% Antagonism) S1P2” value at S1P2 [1] is listed as “(52) %”.
On to `COc1cc(NC(=O)NCc2cc(C(C)C)c3c(n2)c(C)nn3C)cc(Cl)n1` [Example 10, 1-(2-chloro-6-methoxypyridin-4-yl)-3-((7-isopropyl-1,3-dimethyl-1H-pyrazolo[4,3-b]pyridin-5-yl)methyl)urea], for which the concentration giving a half-maximal response (EC50) at S1P1 is above 8300 nM; at S1P2 [1] it was 58 nM; at S1P3, above 8300 nM; at S1P2 [2], 9.9 nM. Besides, the “FLIPR (% Antagonism) S1P2” value at S1P2 [1] is “(98) %”.
In the case of `CCCc1cc(NC(=O)NNc2cc(C(C)C)c3c(n2)c(C)nn3C)cc(Cl)n1` [Example 11, N-(2-chloro-6-propylpyridin-4-yl)-2-(7-isopropyl-1,3-dimethyl-1H-pyrazolo[4,3-b]pyridin-5-yl)hydrazinecarboxamide], the EC50 at S1P1 is above 8300 nM; on S1P2 [1] it was 9 nM; at S1P3 it was above 8300 nM; on S1P2 [2] it was 5 nM. Also, the “FLIPR (% Antagonism) S1P2” value at S1P2 [1] is reported as “(98) %”.
Turning to `CCCc1cc(NC(=O)NCc2cc(C(C)C)c3c(n2)c(C)nn3C)cc(Cl)n1` [Example 12, 1-(2-chloro-6-propylpyridin-4-yl)-3-((7-isopropyl-1,3-dimethyl-1H-pyrazolo[4,3-b]pyridin-5-yl)methyl)urea], the concentration giving a half-maximal response (EC50) at S1P1 is above 8300 nM; on S1P2 [1] it was 24 nM; on S1P3 it was above 8300 nM; at S1P2 [2], 2.1 nM. Further, the “FLIPR (% Antagonism) S1P2” value at S1P2 [1] is given as “(99) %”.
With `CC(C)c1cc(NNC(=O)Nc2cc(Cl)cc(Cl)c2)nc2ccccc12` [Example 23, N-(3,5-dichlorophenyl)-2-(4-isopropylquinolin-2-yl)hydrazinecarboxamide], the concentration giving a half-maximal response (EC50) is above 8300 nM at S1P1, above 8300 nM at S1P3 and 188 nM on S1P2 [2].
With `Cc1cc(NNC(=O)Nc2cc(Cl)nc(Cl)c2)nc2c(C)cccc12` [Example 24, N-(2,6-dichloropyridin-4-yl)-2-(4,8-dimethylquinolin-2-yl)hydrazinecarboxamide], the EC50 at S1P1 is above 8300 nM; at S1P3, above 8300 nM; at S1P2 [2] it was 390 nM.
As for `Cc1cc(NNC(=O)Nc2cc(Cl)cc(Cl)c2)nc2c(C)cccc12` [Example 25, N-(3,5-dichlorophenyl)-2-(4,8-dimethylquinolin-2-yl)hydrazinecarboxamide], the half-maximal effective concentration (EC50) is above 8300 nM at S1P1, above 8300 nM on S1P3 and 451 nM on S1P2 [2].
As for `Cc1cc(NNC(=O)Nc2cc(Cl)nc(Cl)c2)nc2ccccc12` [Example 26, N-(2,6-dichloropyridin-4-yl)-2-(4-methylquinolin-2-yl)hydrazinecarboxamide], the values for the concentration for a half-maximal effect (EC50) at S1P1, at S1P3 and on S1P2 [2] were above 8300 nM, above 8300 nM and 196 nM, respectively.
Take `Cc1ccc(C)c2c(C)cc(NNC(=O)Nc3cc(Cl)cc(Cl)c3)nc12` [Example 27, N-(3,5-dichlorophenyl)-2-(4,5,8-trimethylquinolin-2-yl)hydrazinecarboxamide]: the EC50 at S1P1 is above 8300 nM; at S1P3 it was above 8300 nM; on S1P2 [2], 386 nM.
